This passage reports TGI and GI50 results from PubChem BioAssay (NCI).

Some test systems named below: NCI/ADR-RES ovarian; OVCAR-4 ovarian; UO-31 renal; MOLT-4 leukemia; RXF 393 renal; LOX IMVI melanoma; U251 CNS; IGROV1 ovarian; CCRF-CEM leukemia; SF-268 CNS.
Assay in all cases: NCI-60 cell line screen, 48 h

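These data come from cells grown in 96-well plates and exposed to compound for 48 hours at five concentrations. Abbreviation: GI50, concentration required for 50% inhibition of growth. At the TGI there is no net growth.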

Take `O=C(O)[C@@H]1C2CC([C@@H]1C(=O)O)[C@H](N1C(=O)CCC1=O)[C@@H]2Br` (some centres undefined): the TGI with NCI/ADR-RES ovarian, in the assay on OVCAR-4 ovarian, in the assay on UO-31 renal, in the assay on MOLT-4 leukemia, in the assay with RXF 393 renal and in the assay with LOX IMVI melanoma was over 100 µM each time. For the same compound, the TGI in the assay with U251 CNS, in the assay with IGROV1 ovarian, with CCRF-CEM leukemia and in the assay on SF-268 CNS was over 100 µM in each case.

`CCCN(Cc1ccc(F)cc1)c1ccc(CO)c(Cl)c1`: the GI50 was 9.52 µM in the assay with NCI/ADR-RES ovarian; 0.4 µM in the assay with OVCAR-4 ovarian; 2.65 µM in the assay on UO-31 renal; 11.2 µM in the assay with MOLT-4 leukemia; 4.12 µM in the assay with RXF 393 renal; 9.49 µM in the assay on LOX IMVI melanoma. Further, the GI50 in the assay on U251 CNS is 2.48 µM; in the assay on IGROV1 ovarian it was 0.0897 µM; in the assay on CCRF-CEM leukemia, 12.2 µM; in the assay with SF-268 CNS it was 16.1 µM. The TGI with NCI/ADR-RES ovarian was 22.9 µM; in the assay with OVCAR-4 ovarian it was 7.9 µM; with UO-31 renal, 13.9 µM; in the assay with MOLT-4 leukemia, 30.1 µM; in the assay with RXF 393 renal it was 16.8 µM; in the assay on LOX IMVI melanoma, 21.9 µM. In addition, the TGI with U251 CNS worked out at 16.2 µM; with IGROV1 ovarian, 0.39 µM; in the assay on CCRF-CEM leukemia, 30.5 µM; in the assay with SF-268 CNS, 32.1 µM.

With `COc1ccc(Cn2nc(-c3cc(OC)c(OC)c(OC)c3)c3c2CCc2cnoc2-3)cc1OC`, the GI50 was 3.02 µM in the assay on NCI/ADR-RES ovarian; 4.96 µM with OVCAR-4 ovarian; 4.17 µM with UO-31 renal; 3.76 µM in the assay with MOLT-4 leukemia; 1.63 µM in the assay with RXF 393 renal; 3.02 µM in the assay on LOX IMVI melanoma. Also, the GI50 with U251 CNS is 4.97 µM; with IGROV1 ovarian, 7.28 µM; with CCRF-CEM leukemia, 3.17 µM; in the assay on SF-268 CNS, 5.41 µM. The TGI in the assay with NCI/ADR-RES ovarian is 21.5 µM; in the assay with OVCAR-4 ovarian, 83.9 µM; in the assay with UO-31 renal it was over 100 µM; in the assay on MOLT-4 leukemia it was over 100 µM; in the assay with RXF 393 renal, 9.29 µM; in the assay with LOX IMVI melanoma, over 100 µM. Further, the TGI in the assay on U251 CNS, with IGROV1 ovarian, in the assay with CCRF-CEM leukemia and in the assay on SF-268 CNS was over 100 µM throughout.

As for `CC12CCC=CC1CCC1C2CCC2(C)C(c3ccc(=O)oc3)CCC12O` (centres undefined), the GI50 with NCI/ADR-RES ovarian was 0.0475 µM; in the assay with OVCAR-4 ovarian, 0.167 µM; in the assay on UO-31 renal, 0.0647 µM; in the assay with MOLT-4 leukemia it was 0.0282 µM; in the assay on RXF 393 renal, 0.0167 µM; with LOX IMVI melanoma, 0.033 µM. Moreover, the GI50 in the assay on U251 CNS is 0.131 µM; with IGROV1 ovarian it was 0.0688 µM; with CCRF-CEM leukemia, 0.0364 µM; with SF-268 CNS, 0.041 µM. Further, the TGI was determined as 0.247 µM with NCI/ADR-RES ovarian; 0.641 µM in the assay on OVCAR-4 ovarian; 0.189 µM in the assay with UO-31 renal; 0.0967 µM in the assay on MOLT-4 leukemia; 0.047 µM in the assay with RXF 393 renal; 0.141 µM in the assay with LOX IMVI melanoma. The TGI was determined as 0.419 µM in the assay on U251 CNS, 1.36 µM in the assay with IGROV1 ovarian, 0.544 µM in the assay on CCRF-CEM leukemia and 0.253 µM in the assay on SF-268 CNS.

As to `CC1=C(C(=O)OCc2ccccc2)C(c2ccc3c(c2)OCO3)n2c(nc3ccccc32)N1` (centres undefined), the GI50 with NCI/ADR-RES ovarian is 0.311 µM; in the assay with OVCAR-4 ovarian it was 13.3 µM; with UO-31 renal, 0.544 µM; in the assay on MOLT-4 leukemia, 0.753 µM; with RXF 393 renal it was 0.305 µM; in the assay on LOX IMVI melanoma, 0.566 µM. Moreover, the GI50 in the assay on U251 CNS is 0.464 µM; in the assay on IGROV1 ovarian it was 0.644 µM; in the assay with CCRF-CEM leukemia, 0.418 µM; in the assay with SF-268 CNS, 0.513 µM. Besides, the TGI in the assay with NCI/ADR-RES ovarian is over 100 µM; in the assay on OVCAR-4 ovarian, over 100 µM; with UO-31 renal, over 79.5 µM; in the assay on MOLT-4 leukemia, over 100 µM; with RXF 393 renal, over 100 µM; in the assay with LOX IMVI melanoma, over 100 µM. For the same compound, the TGI in the assay on U251 CNS, in the assay on IGROV1 ovarian, with CCRF-CEM leukemia and in the assay on SF-268 CNS was over 100 µM throughout.

For `N=C(N)c1nn(C2OC(CO)C(O)C2O)c2nc[nH]c(=O)c12` (centres undefined), the GI50 in the assay with NCI/ADR-RES ovarian was 0.321 µM; with OVCAR-4 ovarian, 0.647 µM; in the assay with UO-31 renal, 0.332 µM; with MOLT-4 leukemia, 0.491 µM; in the assay with RXF 393 renal it was 0.696 µM; with LOX IMVI melanoma it was 0.337 µM. In addition, the GI50 in the assay on U251 CNS was 2.06 µM; with IGROV1 ovarian it was 1.19 µM; with CCRF-CEM leukemia it was 0.434 µM; with SF-268 CNS, 0.445 µM. Moreover, the TGI is 1.72 µM in the assay with NCI/ADR-RES ovarian; 7.84 µM in the assay with OVCAR-4 ovarian; 2.62 µM with UO-31 renal; 4.12 µM in the assay on MOLT-4 leukemia; 4.89 µM with RXF 393 renal; 1.84 µM in the assay on LOX IMVI melanoma. The values for the TGI in the assay on U251 CNS, with IGROV1 ovarian and with SF-268 CNS were over 37.1 µM, 3.81 µM and 3.04 µM, respectively.

Take `CC12CCC(=O)C=C1CCC1C2CCC2(C)C(C(=O)Cn3cnc4c(=S)nc[nH]c43)CCC12` (centres undefined): the TGI in the assay with NCI/ADR-RES ovarian was over 100 µM; in the assay on OVCAR-4 ovarian it was 55 µM; with UO-31 renal, over 100 µM; in the assay on MOLT-4 leukemia it was over 100 µM; in the assay with RXF 393 renal, 44 µM; with LOX IMVI melanoma, over 100 µM. Besides, the TGI in the assay with U251 CNS, with IGROV1 ovarian, in the assay with CCRF-CEM leukemia and in the assay on SF-268 CNS was over 100 µM in each case.

Turning to `COc1cc2c(cc1OC)-c1ccc3cc4c(cc3c1N(CCN1CCCC1)C2)OCO4`, the GI50 is 7 µM in the assay on NCI/ADR-RES ovarian; 0.858 µM in the assay with OVCAR-4 ovarian; 1.51 µM with UO-31 renal; 0.228 µM in the assay with MOLT-4 leukemia; 0.794 µM in the assay on RXF 393 renal; 0.309 µM in the assay on LOX IMVI melanoma. The GI50 in the assay with U251 CNS is 0.563 µM; with IGROV1 ovarian, 0.517 µM; in the assay on CCRF-CEM leukemia, 0.186 µM; in the assay with SF-268 CNS it was 0.36 µM. Besides, the TGI turned out to be 53.8 µM with NCI/ADR-RES ovarian; 6.49 µM in the assay on OVCAR-4 ovarian; 4.09 µM in the assay with UO-31 renal; 3.44 µM in the assay on MOLT-4 leukemia; 2.72 µM in the assay on RXF 393 renal; 1.39 µM with LOX IMVI melanoma. In addition, the TGI came to 1.9 µM in the assay with U251 CNS, 2.37 µM with IGROV1 ovarian, 4.36 µM in the assay with CCRF-CEM leukemia and 2 µM with SF-268 CNS.
